Experimental data published in patent US7192614B2, “Compositions and methods of treatment to alleviate or prevent migrainous headaches and their associated symptoms” (GelStat Corporation, priority 2002, dated 2007).

How the values were obtained:
migraine = conditions: cited from earlier work
migraine headache = test: Individual case reports, acute sublingual treatment of migraine headache (Examples 1-8, 10); assay type: in vivo, human; conditions: single subject
Description: A person in otherwise good health had suffered for years with consistently recurring migraine headaches, frequency approximately 1–3 times per month, average duration 4–12 hours, which headaches had proven refractory to standard pharmacological treatment. These migraine headaches were often accompanied by nausea, and infrequently by vomiting. Each occurrence of migraine headache rendered the individual unable to participate in the normal activities of daily living, both socially and professionally. Absenteeism from work and missed social engagements resulted from their frequent need to ensconce themself in a darkened, quiet room where they would ‘wait out’ the headache. The frequency and unpredictability of the migraine headaches caused substantial impairment even between events, this impairment associated with anxiety and the inability to plan any event with confidence. This individual used the present invention in a two (2) part sublingual administration regimen, wherein a first composition is administered sublingually, and allowed to reside under the tongue for a period of about sixty (60) seconds. A second identical composition is administered, following the start of administration of the first composition by approximately five (5) minutes. […]

[1] = 5 mg, placebo-controlled 2-attack study
[2] = doses > or = 2.5 mg, Rapoport 1997

Row | SMILES | 1 Hour headache response (migraine; Table 2, literature values) | 2 Hour complete headache response (migraine; Table 2, literature values) | 2 Hour headache response (migraine; Table 2, literature values) | 2 hour pain free (migraine; Table 2, literature values) | subject-reported side effects (migraine headache) | subject-reported relief of migraine headache and associated symptoms (migraine headache; two part sublingual regimen) | pain free at 2 hours postdose (migraine; 5 mg) | pain-free response at 1 hour postdose (migraine; 5 mg) | sustained pain-free response at 24 hours (migraine; 5 mg) | headache response at 30 minutes (migraine; [1]) | headache response at 2 hours (migraine; [1]) | 2 hour sustained pain free (migraine; Table 2, literature values) | headache response rate at 1 hour (migraine; [2]) | headache response rate at 2 hours (migraine; [2])
1 | CNS(=O)(=O)Cc1ccc2[nH]cc(CCN(C)C)c2c1 [Sumatriptan] | 20% | 36% | 59% | 29% | “weakness” and “exhaustion” | moderate success | – | – | – | – | – | – | – | –
2 | CN(C)CCc1c[nH]c2ccc(C[C@H]3COC(=O)N3)cc12 [Zolmitriptan] | 44%^1 | 40–45%^6,7 | 66%^2,3,4 | 27–33%^8 | – | – | 31.1 % of attacks | 10.6 % of attacks | ^9Among attacks treated with ZOMIG-ZMT 5 mg, a sustained pain-free response at 24 hours was achieved in 22.2% of attacks compared to 8.2% for placebo (P < .0001)^1 also unpublished data, see same web address as for #5 | 16.5 % of attacks | 59 % of attacks | 31%^9 | 44 to 51% | 65 to 67%
